Consider three compounds from article PMC7922932, “Molecular Dissection of Escherichia coli CpdB: Roles of the N Domain in Catalysis and Phosphate Inhibition, and of the C Domain in Substrate Specificity and Adenosine Inhibition” (International Journal of Molecular Sciences, 2021).

Like-named read-outs stand apart in the source and are kept apart here. Where only a bound is given, the exact number is not on record here.

In assay [1] the target is T1, Mature CpdB (Escherichia coli, UniProt P08331). The assay is described as follows: biochemical. Format: biochemical. The arrangement: A structural model of mature CpdB (aa 20–647) was built; GST (N, cleaved yes); made in house; host or cells: E. coli BL21. The method, then:
(§1) Reaction mixtures of 100 µL contained, besides the needed amount of enzyme (i.e., 0.02–0.05 µg/mL of mature CpdB, 2 µg/mL of a CpdB point mutant, or 0.2 µg/mL of CpdB_Ndom), 50 mM Tris [Tris(hydroxymethyl)aminomethane]-HCl pH 7.5 (adjusted at 37 °C), 2 mM MnCl2, 0.1 mg/mL bovine serum albumin, and the indicated concentrations of bis-4-NPP and the compound tested as inhibitor. Incubations performed at 37 °C were stopped by addition of 0.5 mL of 200 mM Tris, pH 8.9, 5 mM EDTA (ethylenediaminetetraacetate), immediately followed by A405 measurement (ε = 18.1 mM^−1 cm^−1). This termination procedure was used instead of the addition of a high NaOH concentration, to avoid the known formation of brown precipitates of air-oxidized Mn^2+ hydroxide. On occasions, when a higher sensitivity was needed, reaction mixtures of 500 µL were implemented and termination was performed with 0.1 mL 1M Tris, pH 8.9, 30 mM EDTA.

In assay [2] the target is T2, CpdB_Ndom (Escherichia coli, UniProt P08331, D305N/I97V/M87I).
T2 construct: GST (N, cleaved yes); made in house; host or cells: E. coli BL21
The assay is described as follows: biochemical. The method, then: Substrate saturation experiments were run in the absence and the presence of one of these inhibitors at fixed concentrations (Figure 7).
as §1

In assay [3] the target is CpdB_Ndom. The format is biochemical, Escherichia coli. To be noted: CpdB_Ndom versus CpdB; bis-4-NPP as substrate.
In assay [4] the target is T2, CpdB_Ndom. Format: biochemical. Particulars: CpdB_Ndom; 750 µM bis-4-NPP as the substrate; single illustrative experiments.
In assay [5] the target is T1, Mature CpdB. The assay is described as follows: biochemical.
Source text: In this approach, inhibitors were used as probes for the relevance of those enzyme sites, irrespective of the physiological character and concentrations of the compounds used.
(§4) The procedures and detailed conditions to measure the initial rates of phosphohydrolytic reactions were as earlier described [4]. […] The same assay was used with 2′,3′- or 3′,5′-cyclic nucleotides, CDP-choline and bis-4-NPP except that an excess of alkaline phosphatase was included in the reaction mixture as auxiliary enzyme.
The procedures followed to derive kinetic parameters kcat, KM and Ki from initial rate vs. substrate concentration datasets, either in the presence or the absence of inhibitor, were as described elsewhere [49]. Datasets obtained with different substrates in the absence of inhibitors were used to derive kcat and KM values by adjusting the Michaelis-Menten equation to the experimental points by non-linear regression. […] Each one of these equations was simultaneously adjusted (global fit) by nonlinear regression to the three saturation curves of each inhibition experiment, using the Solver function of Microsoft Excel. During the adjustments, Vmax, KM and Ki were left to fluctuate. […] In each set of experiments, the type of inhibition that gave the best fit was used as the model to estimate Ki values.
Assay [6] addresses T3, His^117Ala-CpdB (H117A-CpdB) (Escherichia coli, UniProt P08331, D305N/H117A/I514V/I97V/M87I/N471D/S472N).
T3 construct: A structural model of mature CpdB (aa 20–647) was built; GST (N, cleaved yes); made in house; host or cells: E. coli BL21
The assay is described as follows: biochemical. The method, then: (§2) The two point mutants His^117Ala and Tyr^544Ala of mature CpdB were also tested for the inhibition of the hydrolysis of bis-4-NPP by adenosine.
as §1

For assay [7], the target named is T4, Tyr^544Ala-CpdB (Y544A-CpdB) (Escherichia coli, UniProt P08331, D305N/I514V/I97V/M87I/N471D/S472N/Y544A).
T4 construct: A structural model of mature CpdB (aa 20–647) was built; GST (N, cleaved yes); made in house; host or cells: E. coli BL21
The assay is described as follows: biochemical. The method, then: as §2, §1

In assay [8] the target is T1, Mature CpdB. The arrangement: A structural model of mature CpdB (aa 20–647) was built; GST (N, cleaved yes); made in house; host or cells: E. coli BL21. To be noted: substance is the substrate; cited from earlier work.
The target of another assay is T5, His^117Ala-CpdB (Escherichia coli, UniProt P08331, D305N/H117A/I514V/I97V/M87I/N471D/S472N).
T5 construct: A structural model of mature CpdB (aa 20–647) was built; GST (N, cleaved yes); made in house; host or cells: E. coli BL21
Format: biochemical. The source says:
(§3) The role of the possible catalytic and substrate-binding sites was additionally tested by the preparation of two point mutants of the mature CpdB protein. On the one hand, the mutation His^117Ala modified the histidine residue conserved in the N domain (Figure 1b) with respect to UshA, where it has been proposed to be part of the catalytic core structure and to act as a general base that facilitates the nucleophilic attack by deprotonating a water molecule, and to participate in the stabilization of the transition state. […] On the other hand, mutation Tyr^544Ala modified one of the aromatic residues of CpdB which are conserved in the C domain with respect to the UshA phenylalanine residues that form a stacked sandwich with the adenine ring of the substrate.

The target in assay [9] is T6, CpdB_Ndom (N-terminal domain of CpdB) (Escherichia coli, UniProt P08331, D305N/I97V/M87I).
T6 construct: GST (N, cleaved yes); made in house; host or cells: E. coli BL21
The format is biochemical. To be noted: CpdB_Ndom; substance is the substrate; mean ± SD of three experiments.
Protocol: With all the detectably hydrolyzed substrates, saturation kinetics was studied and parameters kcat and KM were determined from Michaelis-Menten plots (Table 1).
The same assay was used with 2′,3′- or 3′,5′-cyclic nucleotides, CDP-choline and bis-4-NPP except that an excess of alkaline phosphatase was included in the reaction mixture as auxiliary enzyme.
Datasets obtained with different substrates in the absence of inhibitors were used to derive kcat and KM values by adjusting the Michaelis-Menten equation to the experimental points by non-linear regression.

Assay [10] has as its system Tyr^544Ala-CpdB. Format: biochemical, Escherichia coli. Particulars: Tyr^544Ala-CpdB versus wild-type mature CpdB.
Source text: as §3

In assay [11] the target is T7, Tyr^544Ala-CpdB (Escherichia coli, UniProt P08331, D305N/I514V/I97V/M87I/N471D/S472N/Y544A).
T7 construct: A structural model of mature CpdB (aa 20–647) was built; GST (N, cleaved yes); made in house; host or cells: E. coli BL21
Format: biochemical. Particulars: Tyr^544Ala-CpdB; substance is the substrate.
Source text: as §3

Assay [12] concerns the target T2, CpdB_Ndom. The assay is described as follows: Products of the hydrolysis of cyclic (di)nucleotides by CpdB_Ndom (HPLC). The format is biochemical. To be noted: 2′,3′-cAMP at 500 µM.
Source text: as §4
Setting [13] is: mature CpdB, 750 µM bis-4-NPP as the substrate, single illustrative experiments, read-out: IC50.
The mark [14] stands for this setting: mature CpdB, substrate bis-4-NPP, global fit, mixed partial inhibition (Figure 5), values without SD are single experiments, read-out: Inhibition constant (Ki).
Where [15] appears, read: CpdB_Ndom, substrate bis-4-NPP, global fit, complete competitive inhibition (Figure 7), read-out: Inhibition constant (Ki).
Where [16] appears, read: His^117Ala-CpdB, substance is the substrate.

T5 sequence (P08331 20-647 M87I/I97V/H117A/D305N/N471D/S472N/I514V): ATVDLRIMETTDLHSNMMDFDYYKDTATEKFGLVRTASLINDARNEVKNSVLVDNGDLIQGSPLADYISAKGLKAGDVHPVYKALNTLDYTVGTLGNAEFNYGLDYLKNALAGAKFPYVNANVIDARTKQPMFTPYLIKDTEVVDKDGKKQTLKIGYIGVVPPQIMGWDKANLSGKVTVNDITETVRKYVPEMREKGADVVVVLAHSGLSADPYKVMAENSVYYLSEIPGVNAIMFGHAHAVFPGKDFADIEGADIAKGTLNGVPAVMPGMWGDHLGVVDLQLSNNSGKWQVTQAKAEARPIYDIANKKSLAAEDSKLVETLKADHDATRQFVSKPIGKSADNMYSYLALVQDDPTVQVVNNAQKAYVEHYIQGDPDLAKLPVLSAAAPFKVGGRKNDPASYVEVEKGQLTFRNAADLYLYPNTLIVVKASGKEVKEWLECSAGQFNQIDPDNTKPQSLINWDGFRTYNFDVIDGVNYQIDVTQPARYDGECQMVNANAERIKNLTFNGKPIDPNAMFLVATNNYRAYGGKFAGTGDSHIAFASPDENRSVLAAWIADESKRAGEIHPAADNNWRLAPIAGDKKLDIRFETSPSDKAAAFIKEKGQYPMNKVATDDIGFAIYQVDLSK
T7 sequence (P08331 20-647 M87I/I97V/D305N/N471D/S472N/I514V/Y544A): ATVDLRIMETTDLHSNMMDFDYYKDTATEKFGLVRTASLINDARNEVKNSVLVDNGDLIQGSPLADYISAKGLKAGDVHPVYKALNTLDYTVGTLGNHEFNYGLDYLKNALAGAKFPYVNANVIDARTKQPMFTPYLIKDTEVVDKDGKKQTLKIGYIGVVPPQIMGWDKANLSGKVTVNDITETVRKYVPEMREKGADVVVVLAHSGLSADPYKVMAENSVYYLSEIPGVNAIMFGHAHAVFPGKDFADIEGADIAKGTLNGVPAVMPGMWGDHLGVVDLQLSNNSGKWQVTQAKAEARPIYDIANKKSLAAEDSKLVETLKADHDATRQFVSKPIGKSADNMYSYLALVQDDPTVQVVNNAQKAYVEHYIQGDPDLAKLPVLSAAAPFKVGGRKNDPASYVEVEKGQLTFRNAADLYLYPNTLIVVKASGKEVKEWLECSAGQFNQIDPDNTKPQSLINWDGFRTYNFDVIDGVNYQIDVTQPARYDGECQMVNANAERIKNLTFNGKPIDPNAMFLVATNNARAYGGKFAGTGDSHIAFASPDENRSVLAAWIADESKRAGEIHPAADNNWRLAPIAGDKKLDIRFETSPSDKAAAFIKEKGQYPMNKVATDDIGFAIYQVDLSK
T1 sequence (P08331 20-647): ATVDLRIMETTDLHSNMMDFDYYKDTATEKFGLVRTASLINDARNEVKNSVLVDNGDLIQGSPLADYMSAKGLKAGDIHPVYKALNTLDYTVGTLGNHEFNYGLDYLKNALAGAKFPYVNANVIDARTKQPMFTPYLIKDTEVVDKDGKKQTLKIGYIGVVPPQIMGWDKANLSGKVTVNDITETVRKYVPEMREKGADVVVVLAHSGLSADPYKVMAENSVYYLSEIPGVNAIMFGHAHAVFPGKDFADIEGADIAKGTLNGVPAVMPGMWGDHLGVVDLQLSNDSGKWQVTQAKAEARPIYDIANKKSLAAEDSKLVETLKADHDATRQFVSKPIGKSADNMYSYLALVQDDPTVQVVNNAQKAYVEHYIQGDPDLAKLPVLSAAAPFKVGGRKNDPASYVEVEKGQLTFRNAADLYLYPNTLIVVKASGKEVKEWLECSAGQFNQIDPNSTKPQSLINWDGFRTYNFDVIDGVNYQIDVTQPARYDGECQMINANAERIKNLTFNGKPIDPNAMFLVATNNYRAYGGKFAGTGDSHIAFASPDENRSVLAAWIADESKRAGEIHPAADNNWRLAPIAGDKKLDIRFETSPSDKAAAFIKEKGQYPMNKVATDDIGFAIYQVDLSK
T2 sequence (P08331 20-354 M87I/I97V/D305N): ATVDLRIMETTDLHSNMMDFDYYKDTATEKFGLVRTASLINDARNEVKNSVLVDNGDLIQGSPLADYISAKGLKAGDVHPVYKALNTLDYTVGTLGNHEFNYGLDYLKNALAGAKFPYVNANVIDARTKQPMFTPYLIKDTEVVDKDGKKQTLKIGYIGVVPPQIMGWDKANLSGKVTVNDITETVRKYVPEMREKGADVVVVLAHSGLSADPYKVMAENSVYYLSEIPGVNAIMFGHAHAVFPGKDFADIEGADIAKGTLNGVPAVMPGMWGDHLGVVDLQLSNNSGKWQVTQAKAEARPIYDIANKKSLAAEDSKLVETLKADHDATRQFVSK
T6 sequence (P08331 20-354 M87I/I97V/D305N): as above
T3 sequence (P08331 20-647 M87I/I97V/H117A/D305N/N471D/S472N/I514V): as the sequence (P08331 20-647 M87I/I97V/H117A/D305N/N471D/S472N/I514V) above
T4 sequence (P08331 20-647 M87I/I97V/D305N/N471D/S472N/I514V/Y544A): as the sequence (P08331 20-647 M87I/I97V/D305N/N471D/S472N/I514V/Y544A) above

By IC50 is commonly meant the point on the concentration scale where inhibition reaches its midpoint. What is called Ki is the dissociation constant of the complex between target and ligand, obtained from inhibition or displacement. On to phosphate, for which the IC50 was determined as 9000 µM at Mature CpdB [1] (setting [13]) and 1700 µM against CpdB_Ndom [4]. The figures for the inhibitory constant (Ki) at Mature CpdB [1] (setting [14]) and at CpdB_Ndom [2] (setting [15]) were 1380 ± 340 µM and 1060 ± 210 µM, respectively. On CpdB_Ndom [3], the “Ki increase in the absence of the C-terminal domain” value was “did not change”.

`Nc1ncnc2c1ncn2[C@@H]1O[C@H](CO)[C@@H](O)[C@H]1O` [Adenosine, adenosine]: the IC50 on Mature CpdB [1] is 870 µM; at CpdB_Ndom [2] it was over 10000 µM; against Mature CpdB [5], 3250 µM; in [6] it was 2000 µM; in assay [7], about 30000 µM. In addition, the Ki was 160 µM on Mature CpdB [1], 48000 µM on CpdB_Ndom [2] and 41 ± 17 µM on Mature CpdB [5].

On to `Nc1ncnc2c1ncn2[C@@H]1O[C@H](CO)[C@H]2OP(=O)(O)O[C@H]21` [2′,3′-cAMP], for which the half-maximal inhibitory concentration (IC50) on Mature CpdB [1] (setting [13]) was found to be 56 µM; against CpdB_Ndom [4], 840 µM. The figures for the inhibitory constant (Ki) on Mature CpdB [1] (setting [14]) and on CpdB_Ndom [2] (setting [15]) were 5 ± 0.4 µM and 460 ± 50 µM, respectively. Further, the “K M” value at Mature CpdB [8] is 27 µM; on His^117Ala-CpdB (setting [16]), 126 ± 7 µM; in assay [9] it was 390 ± 170 µM; at Tyr^544Ala-CpdB [11], 1600 ± 550 µM. Further, the k cat was 190 s⁻¹ on Mature CpdB [8], 0.18 ± 0.02 s⁻¹ at His^117Ala-CpdB (setting [16]), 73 ± 32 s⁻¹ in [9] and 190 ± 60 s⁻¹ at Tyr^544Ala-CpdB [11]. In addition, the “k cat /K M (catalytic efficiency)” value on Mature CpdB [8] is reported as 7,300,000 M^−1 s^−1. Further, on His^117Ala-CpdB (His^117Ala-CpdB versus wild-type mature CpdB, same substrate), the “Catalytic efficiency (kcat/KM) lower than wild-type mature CpdB” value was found to be 5000 fold. Also, the “k cat /K M” value at His^117Ala-CpdB (setting [16]) is 1500 ± 230 M⁻¹ s⁻¹; in [9], 190,000 ± 13,000 M^−1 s^−1; at Tyr^544Ala-CpdB [11] it was 140,000 ± 73,000 M^−1 s^−1. The “KM increase by the Tyr^544Ala mutation” value in the assay on Tyr^544Ala-CpdB [10] is on record as 60 fold. For the same compound, on CpdB_Ndom [12], the “2′-AMP as product of hydrolysis” value was found to be 15%. In addition, the “3′-AMP as product of hydrolysis” value at CpdB_Ndom [12] was found to be 85%.
